According to the kinase profiling compilation of Christmann-Franck et al. (2016):
Values joined by “and” are separate entries in the source; they are usually repeats but may differ in a detail not shown here. Equal entries are not always repeated.

Assays:
Experiment in all cases: radiometric filter-binding kinase assay, Kinase HotSpot
Conditions in all cases: compound 0.5 µM; ATP 10 µM
NEK6 (human) = NEK6 (human) (UniProt Q9HC98)
PRKCI (human) = PRKCI (human) (UniProt P41743)
NEK9 (human) = NEK9 (human) (UniProt Q8TD19)
FGFR2 (human) = FGFR2 (human) (UniProt P21802)
ACVR1 (human) = ACVR1 (human) (UniProt Q04771)
SGK3 (human) = SGK3 (human) (UniProt Q96BR1)
PHKG2 (human) = PHKG2 (human) (UniProt P15735)
PRKD3 (human) = PRKD3 (human) (UniProt O94806)
PLK3 (human) = PLK3 (human) (UniProt Q9H4B4)
CAMKK1 (human) = CAMKK1 (human) (UniProt Q8N5S9)
MAPK9 (human) = MAPK9 (human) (UniProt P45984)
ADRBK1 (human) = ADRBK1 (human) (UniProt P25098)
GRK4 (human) = GRK4 (human) (UniProt P32298)
TAOK2 (human) = TAOK2 (human) (UniProt Q9UL54)
HIPK1 (human) = HIPK1 (human) (UniProt Q86Z02)
DMPK (human) = DMPK (human) (UniProt Q09013)
DDR2 (human) = DDR2 (human) (UniProt Q16832)
PTK2 (human) = PTK2 (human) (UniProt Q05397)
BTK (human) = BTK (human) (UniProt Q06187)
MAPK10 (human) = MAPK10 (human) (UniProt P53779)
SRMS (human) = SRMS (human) (UniProt Q9H3Y6)
MYLK2 (human) = MYLK2 (human) (UniProt Q9H1R3)
PRKCB2 (human) = PRKCB2 (human) (UniProt P05771)
NUAK2 (human) = NUAK2 (human) (UniProt Q9H093)
PLK1 (human) = PLK1 (human) (UniProt P53350)
CLK1 (human) = CLK1 (human) (UniProt P49759)
PBK (human) = PBK (human) (UniProt Q96KB5)
ERBB4 (human) = ERBB4 (human) (UniProt Q15303)
MAP3K7 TAB1 (human) = MAP3K7 TAB1 (human) (UniProt O43318+Q15750)
CDC42BPB (human) = CDC42BPB (human) (UniProt Q9Y5S2)
SYK (human) = SYK (human) (UniProt P43405)
CSNK1G1 (human) = CSNK1G1 (human) (UniProt Q9HCP0)
DYRK2 (human) = DYRK2 (human) (UniProt Q92630)
LIMK1 (human) = LIMK1 (human) (UniProt P53667)
STK3 (human) = STK3 (human) (UniProt Q13188)
RPS6KA1 KD1 KD2 (human) = RPS6KA1 KD1 KD2 (human) (UniProt Q15418)
ITK (human) = ITK (human) (UniProt Q08881)
RPS6KA3 KD1 KD2 (human) = RPS6KA3 KD1 KD2 (human) (UniProt P51812)
CDK4 CCND3 (human) = CDK4 CCND3 (human) (UniProt P30281+P11802)
NEK4 (human) = NEK4 (human) (UniProt P51957)
PRKG2 (human) = PRKG2 (human) (UniProt Q13237)
LYN (human) = LYN (human) (UniProt P07948)

ERBB4 (human), sequence (Q15303 whole entry, looked up): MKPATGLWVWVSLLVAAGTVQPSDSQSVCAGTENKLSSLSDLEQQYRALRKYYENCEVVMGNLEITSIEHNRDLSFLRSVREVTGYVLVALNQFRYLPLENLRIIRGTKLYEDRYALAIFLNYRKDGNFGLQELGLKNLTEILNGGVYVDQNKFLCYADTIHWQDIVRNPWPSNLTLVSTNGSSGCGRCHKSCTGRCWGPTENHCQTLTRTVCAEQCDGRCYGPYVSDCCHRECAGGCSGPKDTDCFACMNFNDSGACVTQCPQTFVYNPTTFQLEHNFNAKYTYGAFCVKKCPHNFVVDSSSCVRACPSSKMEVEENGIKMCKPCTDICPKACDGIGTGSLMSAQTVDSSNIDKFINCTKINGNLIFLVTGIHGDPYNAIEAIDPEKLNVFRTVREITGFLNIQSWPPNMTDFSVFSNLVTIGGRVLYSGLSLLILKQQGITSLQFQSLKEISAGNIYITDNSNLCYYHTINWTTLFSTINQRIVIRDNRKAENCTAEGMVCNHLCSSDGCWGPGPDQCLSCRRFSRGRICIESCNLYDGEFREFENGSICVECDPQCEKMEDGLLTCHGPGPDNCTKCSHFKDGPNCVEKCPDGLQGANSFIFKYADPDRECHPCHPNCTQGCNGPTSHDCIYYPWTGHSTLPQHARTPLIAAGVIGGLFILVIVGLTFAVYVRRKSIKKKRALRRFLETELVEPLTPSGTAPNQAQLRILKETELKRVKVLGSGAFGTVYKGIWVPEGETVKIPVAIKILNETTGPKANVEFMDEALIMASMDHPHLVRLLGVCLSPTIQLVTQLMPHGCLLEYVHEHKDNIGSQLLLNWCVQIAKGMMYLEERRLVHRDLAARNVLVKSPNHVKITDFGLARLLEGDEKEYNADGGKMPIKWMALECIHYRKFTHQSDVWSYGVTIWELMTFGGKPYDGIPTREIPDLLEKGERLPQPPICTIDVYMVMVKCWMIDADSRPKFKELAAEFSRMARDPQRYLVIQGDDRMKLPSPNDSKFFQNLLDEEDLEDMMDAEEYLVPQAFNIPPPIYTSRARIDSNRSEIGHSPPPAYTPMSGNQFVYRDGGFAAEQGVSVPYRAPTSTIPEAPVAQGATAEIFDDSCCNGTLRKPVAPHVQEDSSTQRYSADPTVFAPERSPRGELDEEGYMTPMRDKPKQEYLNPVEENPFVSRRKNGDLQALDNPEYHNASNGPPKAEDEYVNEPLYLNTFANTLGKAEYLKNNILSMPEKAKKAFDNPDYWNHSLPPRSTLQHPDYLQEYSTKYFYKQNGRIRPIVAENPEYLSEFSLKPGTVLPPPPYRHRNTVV
MAP3K7 TAB1 (human), sequence (O43318 whole entry, looked up): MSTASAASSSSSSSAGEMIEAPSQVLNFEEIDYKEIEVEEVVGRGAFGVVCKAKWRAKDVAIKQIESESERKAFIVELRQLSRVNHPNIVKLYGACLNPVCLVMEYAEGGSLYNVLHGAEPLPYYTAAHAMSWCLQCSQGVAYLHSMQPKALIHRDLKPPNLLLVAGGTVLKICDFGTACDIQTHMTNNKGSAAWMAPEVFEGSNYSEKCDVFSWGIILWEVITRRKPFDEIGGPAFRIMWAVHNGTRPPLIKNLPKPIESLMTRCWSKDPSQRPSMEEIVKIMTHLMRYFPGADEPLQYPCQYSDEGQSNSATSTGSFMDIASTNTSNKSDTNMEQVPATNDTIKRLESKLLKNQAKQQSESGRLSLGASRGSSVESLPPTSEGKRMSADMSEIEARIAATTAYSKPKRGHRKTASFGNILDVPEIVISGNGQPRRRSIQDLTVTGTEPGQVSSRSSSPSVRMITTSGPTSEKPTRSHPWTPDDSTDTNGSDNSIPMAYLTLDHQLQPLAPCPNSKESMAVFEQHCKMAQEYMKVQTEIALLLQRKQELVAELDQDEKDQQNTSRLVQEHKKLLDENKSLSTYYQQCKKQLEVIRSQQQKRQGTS
MAP3K7 TAB1 (human), sequence (Q15750 whole entry, looked up): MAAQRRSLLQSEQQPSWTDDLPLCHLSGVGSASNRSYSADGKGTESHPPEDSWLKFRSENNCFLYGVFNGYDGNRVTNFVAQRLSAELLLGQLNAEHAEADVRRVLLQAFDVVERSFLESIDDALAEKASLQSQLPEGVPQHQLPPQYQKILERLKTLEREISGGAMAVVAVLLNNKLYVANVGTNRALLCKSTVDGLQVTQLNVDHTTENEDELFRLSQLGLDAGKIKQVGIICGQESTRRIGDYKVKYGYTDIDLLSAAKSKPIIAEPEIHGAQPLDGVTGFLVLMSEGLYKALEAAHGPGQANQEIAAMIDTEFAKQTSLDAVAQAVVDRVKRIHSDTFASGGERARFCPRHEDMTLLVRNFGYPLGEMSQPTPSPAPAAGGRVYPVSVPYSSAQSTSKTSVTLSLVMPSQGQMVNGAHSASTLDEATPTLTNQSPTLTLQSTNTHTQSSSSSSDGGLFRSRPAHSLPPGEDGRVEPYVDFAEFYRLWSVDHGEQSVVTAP
PBK (human), sequence (Q96KB5 whole entry, looked up): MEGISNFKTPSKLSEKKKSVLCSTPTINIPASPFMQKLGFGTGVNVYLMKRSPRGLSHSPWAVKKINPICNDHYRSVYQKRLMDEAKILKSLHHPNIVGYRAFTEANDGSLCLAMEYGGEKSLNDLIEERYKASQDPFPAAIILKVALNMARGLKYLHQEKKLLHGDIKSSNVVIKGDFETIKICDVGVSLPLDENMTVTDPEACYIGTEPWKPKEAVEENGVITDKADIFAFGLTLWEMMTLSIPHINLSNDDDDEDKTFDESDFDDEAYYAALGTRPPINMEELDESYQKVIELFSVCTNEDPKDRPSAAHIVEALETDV
NEK6 (human), sequence (Q9HC98 whole entry, looked up): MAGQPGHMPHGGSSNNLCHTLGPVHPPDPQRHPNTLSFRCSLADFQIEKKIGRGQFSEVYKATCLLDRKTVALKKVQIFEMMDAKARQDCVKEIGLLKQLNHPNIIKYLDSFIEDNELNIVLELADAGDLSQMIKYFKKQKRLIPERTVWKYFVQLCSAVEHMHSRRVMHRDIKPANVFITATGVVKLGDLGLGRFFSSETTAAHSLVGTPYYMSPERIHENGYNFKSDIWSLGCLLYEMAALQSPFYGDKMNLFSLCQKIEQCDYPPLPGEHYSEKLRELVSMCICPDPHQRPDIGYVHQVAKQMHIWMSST
DYRK2 (human), sequence (Q92630 whole entry, looked up): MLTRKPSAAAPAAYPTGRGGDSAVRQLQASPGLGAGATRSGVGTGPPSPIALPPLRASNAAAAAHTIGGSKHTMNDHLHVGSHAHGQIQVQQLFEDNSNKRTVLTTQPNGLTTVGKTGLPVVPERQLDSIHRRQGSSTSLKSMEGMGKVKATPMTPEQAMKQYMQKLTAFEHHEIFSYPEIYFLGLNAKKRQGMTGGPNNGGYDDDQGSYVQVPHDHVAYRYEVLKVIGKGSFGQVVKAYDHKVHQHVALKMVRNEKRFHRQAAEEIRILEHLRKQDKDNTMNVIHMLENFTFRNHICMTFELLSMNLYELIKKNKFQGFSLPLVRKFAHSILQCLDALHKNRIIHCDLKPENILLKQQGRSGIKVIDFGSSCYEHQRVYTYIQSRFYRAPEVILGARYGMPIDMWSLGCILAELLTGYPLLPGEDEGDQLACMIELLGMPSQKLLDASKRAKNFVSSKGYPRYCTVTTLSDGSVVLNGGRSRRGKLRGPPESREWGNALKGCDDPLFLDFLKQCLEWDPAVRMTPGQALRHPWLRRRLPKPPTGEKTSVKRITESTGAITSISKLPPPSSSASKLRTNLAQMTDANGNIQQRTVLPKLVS
MAPK10 (human), sequence (P53779 whole entry, looked up): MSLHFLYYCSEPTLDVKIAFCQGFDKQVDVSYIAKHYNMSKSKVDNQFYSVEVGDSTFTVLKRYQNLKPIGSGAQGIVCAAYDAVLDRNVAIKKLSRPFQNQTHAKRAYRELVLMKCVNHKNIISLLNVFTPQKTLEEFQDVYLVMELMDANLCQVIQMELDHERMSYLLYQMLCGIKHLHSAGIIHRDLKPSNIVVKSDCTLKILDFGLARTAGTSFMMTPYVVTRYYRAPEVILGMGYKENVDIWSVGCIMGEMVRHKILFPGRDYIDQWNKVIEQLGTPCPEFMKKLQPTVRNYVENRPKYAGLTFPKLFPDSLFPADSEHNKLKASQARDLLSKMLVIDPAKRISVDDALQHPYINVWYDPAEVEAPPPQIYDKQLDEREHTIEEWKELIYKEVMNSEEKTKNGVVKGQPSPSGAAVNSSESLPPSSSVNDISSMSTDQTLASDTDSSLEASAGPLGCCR
PRKD3 (human), sequence (O94806 whole entry, looked up): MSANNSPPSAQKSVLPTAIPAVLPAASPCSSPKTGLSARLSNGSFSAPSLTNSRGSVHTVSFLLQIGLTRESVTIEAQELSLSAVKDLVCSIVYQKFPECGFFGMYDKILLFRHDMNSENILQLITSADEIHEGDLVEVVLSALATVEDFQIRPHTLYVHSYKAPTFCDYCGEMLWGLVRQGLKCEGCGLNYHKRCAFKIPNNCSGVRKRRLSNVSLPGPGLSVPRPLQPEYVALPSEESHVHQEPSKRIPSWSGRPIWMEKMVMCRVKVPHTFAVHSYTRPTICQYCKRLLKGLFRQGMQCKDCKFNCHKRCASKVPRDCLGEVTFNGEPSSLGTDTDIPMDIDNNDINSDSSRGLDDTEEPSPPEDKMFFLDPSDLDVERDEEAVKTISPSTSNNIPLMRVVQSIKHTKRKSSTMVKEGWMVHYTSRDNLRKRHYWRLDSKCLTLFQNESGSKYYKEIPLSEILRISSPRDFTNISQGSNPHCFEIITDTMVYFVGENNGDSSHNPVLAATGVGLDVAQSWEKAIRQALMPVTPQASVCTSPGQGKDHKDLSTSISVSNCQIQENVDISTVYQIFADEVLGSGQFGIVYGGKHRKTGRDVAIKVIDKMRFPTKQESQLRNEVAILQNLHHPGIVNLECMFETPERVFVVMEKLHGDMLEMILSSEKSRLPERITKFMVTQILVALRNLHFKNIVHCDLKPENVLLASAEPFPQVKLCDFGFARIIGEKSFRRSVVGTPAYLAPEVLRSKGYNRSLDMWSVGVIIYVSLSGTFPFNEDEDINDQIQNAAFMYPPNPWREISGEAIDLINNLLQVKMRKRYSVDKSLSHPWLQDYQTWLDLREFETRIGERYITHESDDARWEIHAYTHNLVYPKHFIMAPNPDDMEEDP

## Cn1cc(/C=C2\C(=O)Nc3ccc(S(N)(=O)=O)cc32)c2ccccc21
NEK6 (human)
  residual activity: 98.6%
PRKCI (human)
  residual activity: 99.6%
NEK9 (human)
  residual activity: 67.3%
FGFR2 (human)
  residual activity: 50.5%
ACVR1 (human)
  residual activity: 111%
SGK3 (human)
  residual activity: 94.7%
PHKG2 (human)
  residual activity: 52%
PRKD3 (human)
  residual activity: 76.4%
PLK3 (human)
  residual activity: 99%
CAMKK1 (human)
  residual activity: 44.9%
MAPK9 (human)
  residual activity: 93.8%
ADRBK1 (human)
  residual activity: 100%
GRK4 (human)
  residual activity: 40.4%
TAOK2 (human)
  residual activity: 86.4%
HIPK1 (human)
  residual activity: 97.2%
DMPK (human)
  residual activity: 106%
DDR2 (human)
  residual activity: 100%
PTK2 (human)
  residual activity: 94.1%
BTK (human)
  residual activity: 30.4%
MAPK10 (human)
  residual activity: 93.1%
SRMS (human)
  residual activity: 99.8%
MYLK2 (human)
  residual activity: 53.6%
PRKCB2 (human)
  residual activity: 86.7%
NUAK2 (human)
  residual activity: 102%
PLK1 (human)
  residual activity: 92.1%
CLK1 (human)
  residual activity: 88.3%
PBK (human)
  residual activity: 99.6%
ERBB4 (human)
  residual activity: 81.3%
MAP3K7 TAB1 (human)
  residual activity: 48.9%
CDC42BPB (human)
  residual activity: 114%
SYK (human)
  residual activity: 16.5%
CSNK1G1 (human)
  residual activity: 88.3%
DYRK2 (human)
  residual activity: 85.5%
LIMK1 (human)
  residual activity: 74.1%
STK3 (human)
  residual activity: 23.4%
RPS6KA1 KD1 KD2 (human)
  residual activity: 12.7%
ITK (human)
  residual activity: 21.4%
RPS6KA3 KD1 KD2 (human)
  residual activity: 12.4%
CDK4 CCND3 (human)
  residual activity: 94%
NEK4 (human)
  residual activity: 81%
PRKG2 (human)
  residual activity: 85%

## CN[C@@H]1C[C@H]2O[C@@](C)([C@@H]1OC)n1c3ccccc3c3c4c(c5c6ccccc6n2c5c31)C(=O)NC4
PHKG2 (human)
  residual activity: 3.42%
CAMKK1 (human)
  residual activity: -3.13%
LYN (human)
  residual activity: 1.18% and 5.72%
DMPK (human)
  residual activity: 4.83%
ITK (human)
  residual activity: 2.89%
RPS6KA3 KD1 KD2 (human)
  residual activity: -1.27%
NEK4 (human)
  residual activity: 46.8%

## N/C(=N\N=C/c1ccc(-c2cccc([N+](=O)[O-])c2)o1)N[N+](=O)[O-]
NEK6 (human)
  residual activity: 93.4%
PRKCI (human)
  residual activity: 92.3%
NEK9 (human)
  residual activity: 91.8%
FGFR2 (human)
  residual activity: 104%
ACVR1 (human)
  residual activity: 98%
SGK3 (human)
  residual activity: 107%
PHKG2 (human)
  residual activity: 100%
PRKD3 (human)
  residual activity: 93.9%
PLK3 (human)
  residual activity: 96.8%
CAMKK1 (human)
  residual activity: 106%
MAPK9 (human)
  residual activity: 111%
ADRBK1 (human)
  residual activity: 98.9%
LYN (human)
  residual activity: 96.3% and 99.4%
GRK4 (human)
  residual activity: 95.5%
TAOK2 (human)
  residual activity: 95.3%
HIPK1 (human)
  residual activity: 81.1%
DMPK (human)
  residual activity: 102%
DDR2 (human)
  residual activity: 101%
BTK (human)
  residual activity: 110%
MAPK10 (human)
  residual activity: 87%
SRMS (human)
  residual activity: 90.2%
MYLK2 (human)
  residual activity: 100%
PRKCB2 (human)
  residual activity: 100%
NUAK2 (human)
  residual activity: 95.2%
PLK1 (human)
  residual activity: 98.6%
CLK1 (human)
  residual activity: 105%
PBK (human)
  residual activity: 111%
ERBB4 (human)
  residual activity: 103%
MAP3K7 TAB1 (human)
  residual activity: 91.5%
CDC42BPB (human)
  residual activity: 95.4%
SYK (human)
  residual activity: 91.8%
CSNK1G1 (human)
  residual activity: 96.4%
DYRK2 (human)
  residual activity: 93.1%
LIMK1 (human)
  residual activity: 99.7%
STK3 (human)
  residual activity: 100%
RPS6KA1 KD1 KD2 (human)
  residual activity: 86.3%
ITK (human)
  residual activity: 99.5%
RPS6KA3 KD1 KD2 (human)
  residual activity: 101%
CDK4 CCND3 (human)
  residual activity: 103%
NEK4 (human)
  residual activity: 103%
PRKG2 (human)
  residual activity: 98.7%

## N#C/C(=C1/Nc2ccccc2S1)c1ccnc(NCCc2cccnc2)n1
NEK6 (human)
  residual activity: 101%
PRKCI (human)
  residual activity: 94.4%
NEK9 (human)
  residual activity: 94.4%
FGFR2 (human)
  residual activity: 102%
ACVR1 (human)
  residual activity: 100%
SGK3 (human)
  residual activity: 107%
PHKG2 (human)
  residual activity: 99.5%
PRKD3 (human)
  residual activity: 64.7%
PLK3 (human)
  residual activity: 94.7%
CAMKK1 (human)
  residual activity: 101%
MAPK9 (human)
  residual activity: 67.5%
ADRBK1 (human)
  residual activity: 103%
LYN (human)
  residual activity: 96.2% and 96.4%
GRK4 (human)
  residual activity: 103%
TAOK2 (human)
  residual activity: 86.4%
HIPK1 (human)
  residual activity: 109%
DDR2 (human)
  residual activity: 94.5%
PTK2 (human)
  residual activity: 93%
BTK (human)
  residual activity: 88.8%
SRMS (human)
  residual activity: 106%
MYLK2 (human)
  residual activity: 92.8%
NUAK2 (human)
  residual activity: 72.5%
PLK1 (human)
  residual activity: 91.4%
CLK1 (human)
  residual activity: 75.4%
PBK (human)
  residual activity: 99.7%
ERBB4 (human)
  residual activity: 83.1%
MAP3K7 TAB1 (human)
  residual activity: 91.5%
CDC42BPB (human)
  residual activity: 95.2%
SYK (human)
  residual activity: 92.4%
CSNK1G1 (human)
  residual activity: 88.8%
DYRK2 (human)
  residual activity: 22.2%
LIMK1 (human)
  residual activity: 90.2%
STK3 (human)
  residual activity: 98.9%
RPS6KA1 KD1 KD2 (human)
  residual activity: 79%
ITK (human)
  residual activity: 98.8%
CDK4 CCND3 (human)
  residual activity: 85.7%
NEK4 (human)
  residual activity: 89.1%
PRKG2 (human)
  residual activity: 98.1%

## O=c1cc(N2CCOCC2)oc2c(-c3ccccc3)cccc12
NEK6 (human)
  residual activity: 112%
PRKCI (human)
  residual activity: 99.5%
NEK9 (human)
  residual activity: 101%
FGFR2 (human)
  residual activity: 95.8%
ACVR1 (human)
  residual activity: 91.2%
SGK3 (human)
  residual activity: 109%
PHKG2 (human)
  residual activity: 97.2%
PRKD3 (human)
  residual activity: 92.5%
PLK3 (human)
  residual activity: 71.9%
CAMKK1 (human)
  residual activity: 105%
MAPK9 (human)
  residual activity: 102%
ADRBK1 (human)
  residual activity: 106%
LYN (human)
  residual activity: 94.5% and 99.4%
GRK4 (human)
  residual activity: 96.5%
HIPK1 (human)
  residual activity: 111%
DMPK (human)
  residual activity: 99.4%
DDR2 (human)
  residual activity: 91.3%
PTK2 (human)
  residual activity: 103%
BTK (human)
  residual activity: 94.5%
MAPK10 (human)
  residual activity: 87.1%
SRMS (human)
  residual activity: 103%
MYLK2 (human)
  residual activity: 102%
PRKCB2 (human)
  residual activity: 104%
NUAK2 (human)
  residual activity: 95.1%
PLK1 (human)
  residual activity: 67.1%
CLK1 (human)
  residual activity: 112%
PBK (human)
  residual activity: 110%
ERBB4 (human)
  residual activity: 102%
MAP3K7 TAB1 (human)
  residual activity: 85.4%
CDC42BPB (human)
  residual activity: 88.4%
SYK (human)
  residual activity: 99.7%
CSNK1G1 (human)
  residual activity: 104%
DYRK2 (human)
  residual activity: 90.8%
LIMK1 (human)
  residual activity: 98.6%
RPS6KA1 KD1 KD2 (human)
  residual activity: 97.3%
ITK (human)
  residual activity: 93.3%
RPS6KA3 KD1 KD2 (human)
  residual activity: 98.1%
CDK4 CCND3 (human)
  residual activity: 96.2%
NEK4 (human)
  residual activity: 95.1%
PRKG2 (human)
  residual activity: 105%
